Patent publication US9309222B2, “Phenyl linked quinolinyl modulators of RORγt” (Janssen Pharmaceutica NV, priority 2012, dated 2016)
Where a name gives a salt, the structure may show the parent alone.

Tests used:
[1] = test system: IL-17 production by CD4 T cells; assay: Human Th17 assay (IL-17 production by CD4 T cells under Th17 differentiation conditions); assay type: cell-based; settings: IL-17 in supernatant after 3 days
Method in brief: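 Primary CD4+ T cells from healthy-donor PBMC, preincubated 1 h with titrated compound (0.2% DMSO), then activated with anti-CD3/CD28 beads plus anti-IL4, anti-IFNγ, IL1β, IL23, IL6, TGFβ and IL2.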

[2] = target: T1, human RORγt LBD (Homo sapiens, UniProt P51449); assay: RORγt reporter assay (GAL4-RORγt LBD luciferase in HEK293T cells); assay type: cell-based; settings: for IC50: 24 hours compound treatment; for inhibition at 6 µM: HEK-293T, read-out: RORγt reporter Assay, % inhibition @ 6 μM, HEK293T cells, 6 μM compound
T1 construct: expressed in transfected cells
T1 sequence (P51449 258-518): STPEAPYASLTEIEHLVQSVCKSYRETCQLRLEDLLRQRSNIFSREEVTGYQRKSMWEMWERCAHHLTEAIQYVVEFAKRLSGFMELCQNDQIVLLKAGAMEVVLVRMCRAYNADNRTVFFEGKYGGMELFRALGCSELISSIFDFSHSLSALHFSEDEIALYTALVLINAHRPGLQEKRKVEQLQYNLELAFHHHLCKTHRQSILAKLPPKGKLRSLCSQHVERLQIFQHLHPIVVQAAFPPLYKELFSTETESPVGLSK
Method in brief: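 HEK293T cells transiently co-transfected with pBIND (GAL4 DBD fused to wild-type human RORγt LBD, plus SV40-driven renilla luciferase) and pGL4.31 GAL4-responsive firefly luciferase reporter. Plated in phenol-red-free DMEM with 5% lipid-reduced FCS and treated with compound for 24 h. Firefly/renilla luminescence ratio plotted against compound concentration.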

[3] = target: T2, human RORγt ligand binding domain (RORγt LBD) (Homo sapiens, UniProt P51449); assay: RORγt ThermoFluor assay (thermal shift, ligand binding affinity); settings: estimated from concentration response of thermal shift
T2 construct: His-tag (N); TurboTEV protease cleavage site (ENLYFQG) (N); made in house; host or cells: E. coli (pHIS1, modified pET vector)
T2 sequence (P51449 with tags, fused parts or gaps): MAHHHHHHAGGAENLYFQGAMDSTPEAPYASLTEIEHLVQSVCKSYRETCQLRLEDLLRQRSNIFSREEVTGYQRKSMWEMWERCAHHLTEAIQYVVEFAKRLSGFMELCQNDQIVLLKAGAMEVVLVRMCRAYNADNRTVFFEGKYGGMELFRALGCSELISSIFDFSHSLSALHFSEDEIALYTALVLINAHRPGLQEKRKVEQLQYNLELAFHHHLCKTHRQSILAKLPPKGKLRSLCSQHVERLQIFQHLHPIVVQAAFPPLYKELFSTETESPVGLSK
Method in brief: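 Thermal shift of 0.065 mg/mL RORγt with 60 μM 1,8-ANS in 100 mM Hepes pH 7.0, 10 mM NaCl, 2.5 mM GSH, 0.002% Tween-20. Compounds in 1:2 series from 10 mM DMSO stock. Dye fluorescence (500 nm emission) tracked versus temperature; ΔTm used to derive KD.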

IC50 ([1]; Homo sapiens, CD4+ T, 72 h) | IC50 ([2]; HEK293T cells) | inhibition at 6 µM [2] | Kd [3] | IC50 [1] | RORγt reporter Assay, % inhibition @ 6 μM ([2]; HEK293T cells, 6 μM compound) | SMILES
1900 nM | 970 nM | 90% | 120 nM | – | – | Cn1cncc1C(O)(c1cccnc1)c1cc(F)c2nc(Cl)c(-c3ccccc3)c(Cl)c2c1 (stereo not shown) [Example 154, (2,4-Dichloro-8-fluoro-3-phenylquinolin-6-yl)(1-methyl-1H-imidazol-5-yl)(pyridin-3-yl)methanol•TFA]
> 6000 nM | 490 nM | 79% | 2000 nM | – | – | Cc1ccc(C(O)(c2cc(C)c3nc(Cl)c(-c4ccccc4)c(Cl)c3c2)c2sccc2C)cn1 (stereo not shown) [Example 158, (2,4-Dichloro-8-methyl-3-phenylquinolin-6-yl)(6-methylpyridin-3-yl)(3-methylthiophen-2-yl)methanol]
75 nM | 17 nM | 93% | 1.2 nM | – | – | Cc1cc(C(O)(c2cc(C)c3nc(Cl)c(-c4ccccc4)c(Cl)c3c2)c2cncn2C)ccn1 (stereo not shown) [Example 159, (2,4-Dichloro-8-methyl-3-phenylquinolin-6-yl)(1-methyl-1H-imidazol-5-yl)(2-methylpyridin-4-yl)methanol•TFA]
690 nM | 120 nM | 97% | 6.1 nM | – | – | Cc1cc(C(O)(c2ccnc(C(F)(F)F)c2)c2cncn2C)cc2c(Cl)c(-c3ccccc3)c(Cl)nc12 (stereo not shown) [Example 160, (2,4-Dichloro-8-methyl-3-phenylquinolin-6-yl)(1-methyl-1H-imidazol-5-yl)(2-(trifluoromethyl)pyridin-4-yl)methanol•TFA]
360 nM | 170 nM | 104% | 78 nM | – | – | Cn1cncc1C(O)(c1ccc(Cl)cc1)c1cc2c(Cl)c(-c3ccccc3)c(Cl)nc2cc1F (stereo not shown) [Example 161, (4-Chlorophenyl)(2,4-dichloro-7-fluoro-3-phenylquinolin-6-yl)(1-methyl-1H-imidazol-5-yl)methanol•TFA]
26 nM | 18 nM | 98% | 1.2 nM | – | – | Cn1cncc1C(O)(c1ccncc1)c1ccc2nc(C(F)(F)F)c(-c3ccccc3)c(C(F)(F)F)c2c1 (stereo not shown) [Example 164, (1-Methyl-1H-imidazol-5-yl)(3-phenyl-2,4-bis(trifluoromethyl)quinolin-6-yl)(pyridin-4-yl)methanol•TFA]

Continued, compound first:

SMILES | IC50 ([1]; Homo sapiens, CD4+ T, 72 h) | IC50 ([2]; HEK293T cells) | inhibition at 6 µM [2] | Kd [3] | IC50 [1] | RORγt reporter Assay, % inhibition @ 6 μM ([2]; HEK293T cells, 6 μM compound)
O=C(O)C(F)(F)F.OC(c1cccnc1)(c1cccc(Cl)c1)c1ccc2nc(C(F)(F)F)c(-c3ccccc3)c(C(F)(F)F)c2c1 (stereo not shown) [Example 165, (3-Chlorophenyl)(3-phenyl-2,4-bis(trifluoromethyl)quinolin-6-yl)(pyridin-3-yl)methanol•TFA] | – | 48 nM | – | 2.4 nM | 97 nM | 98%
[O-][n+]1cccc(C(O)(c2cccc(Cl)c2)c2ccc3nc(C(F)(F)F)c(-c4ccccc4)c(C(F)(F)F)c3c2)c1 (stereo not shown) [Example 166, 3-((3-Chlorophenyl)(hydroxy)(3-phenyl-2,4-bis(trifluoromethyl)quinolin-6-yl)methyl)pyridine 1-oxide•TFA] | 150 nM | 180 nM | 103% | 36 nM | – | –
OC(c1ccccc1)(c1cccnc1)c1ccc2nc(C(F)(F)F)c(-c3ccccc3)c(C(F)(F)F)c2c1 (stereo not shown) [Example 170, Phenyl(3-phenyl-2,4-bis(trifluoromethyl)quinolin-6-yl)(pyridin-3-yl)methanol] | 96 nM | 35 nM | 98% | 4.2 nM | – | –
OC(c1ccc(C(F)(F)F)cc1)(c1cccnc1)c1ccc2nc(Cl)c(-c3ccccc3)c(Cl)c2c1 (stereo not shown) [Example 171, (2,4-Dichloro-3-phenylquinolin-6-yl)(pyridin-3-yl)(4-(trifluoromethyl)phenyl)methanol•TFA] | 300 nM | 320 nM | 85% | 140 nM | – | –
Cn1nncc1C(O)(c1ccc2nc(C(F)(F)F)c(-c3ccccc3)c(C(F)(F)F)c2c1)c1cnnn1C [Example 182, Bis(1-methyl-1H-1,2,3-triazol-5-yl)(3-phenyl-2,4-bis(trifluoromethyl)quinolin-6-yl)methanol] | 7 nM | – | 94% | 1.5 nM | – | –
Cn1cncc1C(O)(c1ccc(Cl)cc1)c1ccc2nc(Cl)c(-c3cccc(Cl)c3)c(Cl)c2c1 (stereo not shown) [Example 187, (4-Chlorophenyl)(2,4-dichloro-3-(3-chlorophenyl)quinolin-6-yl)(1-methyl-1H-imidazol-5-yl)methanol] | > 6000 nM | – | 73% | 100 nM | – | –
